From patent US12391672B2, “Solid forms comprising (S)-4-(4-(4-(((2-(2,6-dioxopiperidin-3-yl)-1-oxoisoindolin-4-yl)oxy)methyl)benzyl)piperazin-1-yl)-3-fluorobenzonitrile and salts thereof, and compositions comprising and methods of using the same” (Celgene Corporation, priority 2019, dated 2025)

Columns and labels:
Type in all cases: physicochemical
[1] = Solubility of polymorphic forms in physiologically relevant media and final pH
Source text: Solubility data of the several polymorphic forms of Compound 1 in physiologically relevant media and the final pH of these solutions are summarized in the following tables.

[2] = Dynamic vapor sorption / hygroscopicity
Protocol: Projekt Messtechnik (now ProUmid) SPS11-100n. The sample was placed on an aluminum holder on top of a microbalance and allowed to equilibrate at 50% r.h. before starting one of the following pre-defined humidity programs (1 cycle): • hold 2 h at 50% r.h., • decrease humidity −5% r.h. h^−1 for 10 h (i.e., from 50% r.h. to 0% r.h.), • hold 5 h at […]., • increase humidity +5% r.h. h^−1 for 19 h (i.e., from 0% r.h. to 95% r.h.), • hold 5 h at 95% r.h., • decrease humidity −5% r.h. h^−1 for 9 h (i.e., from 95% r.h. to 50% r.h.), • hold 2 h at 50% r.h. or • hold 2 h at 50% r.h., • increase humidity +5% r.h. h^−1 for 9 h (i.e., from 50% r.h. to 95% r.h.), • hold 5 h at 95% r.h., • decrease humidity −5% r.h. h^−1 for 19 h (i.e., from 95% r.h. to 0% r.h.), • hold 5 h at 0% r.h., • increase humidity +5% r.h. h^−1 for 10 h (i.e., from 0% r.h. to 50% r.h.), • hold 2 h at 50% r.h.
The hygroscopicity was classified based on the mass gain at 85% r.h. relative to the initial mass as follows: deliquescent (sufficient water adsorbed to form a liquid), very hygroscopic (mass increase of […]), hygroscopic (mass increase of <15% but ≥2%), slightly hygroscopic (mass increase of <2% but ≥0.2%), or non-hygroscopic (mass increase of <0.2%).

[3] = Solid state stability under accelerated storage conditions; conditions: 40° C./75% RH, 80° C. and ambient light/temperature for 1 week
Protocol: Form A was not isolated directly as a wet cake but formed only upon drying of Form E in polymorphism studies. […] Small quantities of Form A were generated by dissolving a crude Compound 1 in MEK at high temperature, followed by fast cooling to room temperature, filtration and drying. DSC and TGA data were obtained for samples of Form A and following storage for 1 week at 60° C. and 60° C./75% RH. […] TGA analysis confirmed that this broad endotherm was most likely due to moisture uptake under the accelerated storage conditions. Most of the weight loss of 0.82% in this sample occurred in a single step at less than 75° C. By contrast, weigh loss was a two-step process at the initial time point. […] The residual solvent initially present in the sample was lost upon storage of the sample at 60° C. (0.13% weight loss between 25 to 150° C.).
Form B could be obtained from a process involving methyl acetate. […] HPLC traces were taken of the samples of Form B and following storage for 2 week at 60° C. and 60° C./75% RH. […] Several small degradation products were seen to grow especially in the sample stored at 60° C. Chiral instability was also observed in the sample stored at 60° C./75% RH.
Physical stability: Visually, all samples of Form K were white colored powder with no apparent change in color in the samples stored under accelerated conditions (40° C., 40° C./75% RH, 60° C., 60° C./75% RH and sample stored in light chamber in clear vials exposed to light and covered in aluminum foil) for 14 d relative to the sample stored refrigerated and under ambient conditions.
Solid state chemical stability: HPLC analysis were performed on Form K samples stored under the accelerated stability conditions. […] Based on the HPLC analysis data, there is a measurable but small change in the chemical stability of Form K under the accelerated conditions of temperature, humidity and exposure to light over the 14 d period.
Solid state chiral stability: Chiral stability of Form K samples stored under accelerated stability conditions was tested. There was ˜2.9% of the R-enantiomer (97.1 area % of the active S-isomer) in the initial sample. […]
The chiral purity (area % of S-isomer) remained […] under the accelerated stability conditions.

[4] = HBr salt solubility in buffers (1 mg/mL slurries, mother liquor by HPLC); conditions: all buffers tested
Protocol: (§1) The HBr salt was largely insoluble in various buffers when 1 mg/mL slurries were prepared and the mother liquor concentration determined (by HPLC): <0.05 mg/mL in all buffers tested.

[5] = Competitive slurry and slurry stability experiments
Protocol: Form B was obtained at room temperature while form C was obtained at 45° C. in acetone alone.
as §1

Br.N#Cc1ccc(N2CCN(Cc3ccc(COc4cccc5c4CN([C@H]4CCC(=O)NC4=O)C5=O)cc3)CC2)c(F)c1
Solubility ([1]; FaSSIF): <LOQ
Solubility ([1]; FeSSiF): 0.111 mg/mL
Solubility ([1]; SGF with pepsin): 0.077 mg/mL
Solubility ([1]; Water, t0): 0.301(t0), mg/ml
Solubility ([1]; Water, t24): 0.212 mg/mL
Solubility ([1]; pH 1 buffer HC1/NaC1): 0.018 mg/mL
Solubility ([1]; pH 3 buffer (phosphate)): 0.032 mg/mL
Solubility ([1]; pH 4 buffer (acetate)): 0.038 mg/mL
Solubility ([1]; pH 5 buffer (acetate)): 0.004 mg/mL
Final pH ([1]; solubility sample in FaSSIF): 6.40
Final pH ([1]; solubility sample in FeSSiF): 5.16
Final pH ([1]; solubility sample in SGF with pepsin): 1.15
Final pH ([1]; solubility sample in Water): 4.53
Final pH ([1]; solubility sample in pH 1 buffer HC1/NaC1): 0.95
Final pH ([1]; solubility sample in pH 3 buffer (phosphate)): 3.11
Final pH ([1]; solubility sample in pH 4 buffer (acetate)): 4.18
Final pH ([1]; solubility sample in pH 5 buffer (acetate)): 5.08
hygroscopicity ([2]; DVS, class by mass gain at 85% r.h.): slightly hygroscopic (slightly hygroscopic (mass increase of <2% but ≥0.2%))
solid form after DVS cycle ([2]; after the DVS humidity cycle): remains as Form A
DVS mass increase ([2]; relative humidity from about 0% to about 95%): about 0.7%
DVS mass increase ([2]; relative humidity from about 5% to about 90%): about 0.7%
DVS mass increase ([2]; up to 90% RH): ~0.69%
physical (XRPD) and chemical (HPLC) stability [3]: both physically and chemically stable
mother liquor concentration in buffers [4]: < 0.05 mg/mL
disproportionation in water ([5]; slurried in water for ~24 h): did not appear to disproportionate back to the free base
slurry in acetone/water mixtures (XRPD) ([5]; various water activities): no hydrate formation evident
